Reference: patent US20100298141A1, “SUBSTITUTED PYRIDINE N-OXIDE HERBICIDES” (E. I. DU PONT DE NEMOURS AND COMPANY, priority 2007, published 2010)

Legend:
downy brome = experiment: Test C pre-/postemergence test; type: in vivo, Bromus tectorum; settings: for Plant response rating, Bromegrass, Downy: 31 g ai/ha, scale 0 to 100 (0 no effect, 100 complete control)
Method in brief: (§1)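 Compounds in a non-phytotoxic solvent with surfactant applied preemergence to seeded pots and, at the same time, postemergence to plants 2–18 cm tall (1- to 4-leaf stage). Paddy tests: pots flooded to 3 cm, compound applied into the water, depth held throughout.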

velvetleaf [1] = experiment: Test A pre-/postemergence greenhouse test; type: in vivo, Abutilon theophrasti; settings: for Plant response rating, Velvetleaf: 0 to 100 scale where 0 is no effect and 100 is complete control; for Velvetleaf plant response rating: 0 to 100 scale
Method in brief: (§2)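 Pre: directed soil spray on seeded loam/sand. Post: foliar spray, plants 2–10 cm, 1–2 leaf stage, applied concurrently. Vehicle: non-phytotoxic solvent + surfactant. Greenhouse ~10 d; visual injury rating vs untreated controls.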

duck salad = experiment: Test C flooded paddy test; type: in vivo, Heteranthera limosa; settings: Flood
Method in brief: (§3)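 Test compounds are applied straight into paddy water held 3 cm above the soil surface, with that flood maintained for the whole test. After 13 to 15 days in the greenhouse, each species is scored visually relative to controls.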

catchweed bedstraw = experiment: Test C pre-/postemergence test; type: in vivo, Galium aparine
Method in brief: as §1

woolly cupgrass = experiment: Test C pre-/postemergence test; type: in vivo, Eriochloa villosa; settings: for Plant response rating, Cupgrass, Woolly: 31 g ai/ha, scale 0 to 100 (0 no effect, 100 complete control)
Method in brief: as §1

barnyardgrass [2] = experiment: Test A pre-/postemergence greenhouse test; type: in vivo, Echinochloa crus-galli; settings: for Plant response rating, Barnyardgrass: 0 to 100 scale where 0 is no effect and 100 is complete control; for Barnyardgrass plant response rating: 0 to 100 scale
Method in brief: as §2

barnyardgrass [3] = experiment: Test C flooded paddy test; type: in vivo, Echinochloa crus-galli; settings: Flood
Method in brief: as §3

Surinam grass = experiment: Test C pre-/postemergence test; type: in vivo, Brachiaria decumbens; settings: for Plant response rating, Surinam Grass: 31 g ai/ha, scale 0 to 100 (0 no effect, 100 complete control)
Method in brief: as §1

blackgrass = experiment: Test C pre-/postemergence test; type: in vivo, Alopecurus myosuroides; settings: for Plant response rating, Blackgrass: 31 g ai/ha, scale 0 to 100 (0 no effect, 100 complete control)
Method in brief: as §1

lambsquarters = experiment: Test C pre-/postemergence test; type: in vivo, Chenopodium album; settings: for Plant response rating, Lambsquarters: 31 g ai/ha, scale 0 to 100 (0 no effect, 100 complete control)
Method in brief: as §1

soybean = experiment: Test C pre-/postemergence test; type: in vivo, Glycine max; settings: for Plant response rating, Soybean: 31 g ai/ha, scale 0 to 100 (0 no effect, 100 complete control)
Method in brief: as §1

common ragweed = experiment: Test C pre-/postemergence test; type: in vivo, Ambrosia elation; settings: for Plant response rating, Ragweed: 31 g ai/ha, scale 0 to 100 (0 no effect, 100 complete control)
Method in brief: as §1

crabgrass = experiment: Test A pre-/postemergence greenhouse test; type: in vivo, Digitaria sanguinalis; settings: for Plant response rating, Crabgrass, Large: 0 to 100 scale where 0 is no effect and 100 is complete control; for Crabgrass, Large plant response rating: 0 to 100 scale
Method in brief: as §2

velvetleaf [4] = experiment: Test C pre-/postemergence test; type: in vivo, Abutilon theophrasti; settings: for Plant response rating, Velvetleaf: 31 g ai/ha, scale 0 to 100 (0 no effect, 100 complete control)
Method in brief: as §1

green foxtail = experiment: Test C pre-/postemergence test; type: in vivo, Setaria viridis; settings: for Plant response rating, Foxtail, Green: 31 g ai/ha, scale 0 to 100 (0 no effect, 100 complete control)
Method in brief: as §1

pigweed = experiment: Test C pre-/postemergence test; type: in vivo, Amaranthus retroflexus; settings: for Plant response rating, Pigweed: 31 g ai/ha, scale 0 to 100 (0 no effect, 100 complete control)
Method in brief: as §1

giant foxtail = experiment: Test A pre-/postemergence greenhouse test; type: in vivo, Setaria faberi; settings: for Plant response rating, Foxtail, Giant: 0 to 100 scale where 0 is no effect and 100 is complete control; for Foxtail, Giant plant response rating: 0 to 100 scale
Method in brief: as §2

[5] = 62 g ai/ha, Preemergence, scale 0 to 100
[6] = 125 g ai/ha, preemergence, scale 0 (no effect) to 100 (complete control)
[7] = preemergence, 250 g ai/ha, scale 0 (no effect) to 100 (complete control)
[8] = Postemergence, 500 g ai/ha, 0 is no effect, 100 is complete control
[9] = Preemergence, 125 g ai/ha, 0 no effect, 100 complete control
[10] = Preemergence, 500 g ai/ha, 0 no effect, 100 complete control
[11] = 62 g ai/ha, scale 0 to 100 (0 no effect, 100 complete control)
[12] = 250 g ai/ha, scale 0 to 100, 0 no effect, 100 complete control, 13 to 15 days
[13] = 31 g ai/ha, scale 0 to 100 (0 no effect, 100 complete control)
[14] = 125 g ai/ha, scale 0 to 100, 0 no effect, 100 complete control, 13 to 15 days

C#CCOc1c(CS(=O)(=O)c2cccc[n+]2[O-])c(C(F)(F)F)nn1C [Compound 103]
Bromegrass, Downy plant response rating (downy brome; [5]): 0 | Bromegrass, Downy plant response rating (downy brome; [6]): 70 | Plant response rating, Bromegrass, Downy (downy brome; Preemergence): 0 | Bromegrass, Downy plant response rating (downy brome; [7]): 70 | Plant response rating, Velvetleaf (velvetleaf [1]; Postemergence, 125 g ai/ha): 40 | Velvetleaf plant response rating (velvetleaf [1]; [8]): 70 | Velvetleaf plant response rating (velvetleaf [1]; [9]): 20 | Velvetleaf plant response rating (velvetleaf [1]; [10]): 80 | Plant response rating, Ducksalad (duck salad; [11]): 20 | Plant response rating, Ducksalad (duck salad; [12]): 70 | Galium plant response rating (catchweed bedstraw; [5]): 98 | Galium plant response rating (catchweed bedstraw; [6]): 98 | Galium plant response rating (catchweed bedstraw; [7]): 100 | Cupgrass, Woolly plant response rating (woolly cupgrass; [5]): 30 | Cupgrass, Woolly plant response rating (woolly cupgrass; [6]): 85 | Plant response rating, Cupgrass, Woolly (woolly cupgrass; Preemergence): 0 | Cupgrass, Woolly plant response rating (woolly cupgrass; [7]): 100 | Plant response rating, Barnyardgrass (barnyardgrass [2]; Postemergence, 125 g ai/ha): 80 | Barnyardgrass plant response rating (barnyardgrass [2]; [8]): 90 | Barnyardgrass plant response rating (barnyardgrass [2]; [9]): 90 | Barnyardgrass plant response rating (barnyardgrass [2]; [10]): 100 | Plant response rating, Barnyardgrass (barnyardgrass [3]; [11]): 0 | Plant response rating, Barnyardgrass (barnyardgrass [3]; [12]): 0 | Surinam Grass plant response rating (Surinam grass; [5]): 80 | Surinam Grass plant response rating (Surinam grass; [6]): 90 | Plant response rating, Surinam Grass (Surinam grass; Preemergence): 0 | Surinam Grass plant response rating (Surinam grass; [7]): 95 | Blackgrass plant response rating (blackgrass; [5]): 100 | Blackgrass plant response rating (blackgrass; [6]): 100 | Plant response rating, Blackgrass (blackgrass; Preemergence): 100 | Blackgrass plant response rating (blackgrass; [7]): 100 | Lambsquarters plant response rating (lambsquarters; [5]): 50 | Lambsquarters plant response rating (lambsquarters; [6]): 50 | Plant response rating, Lambsquarters (lambsquarters; Preemergence): 10 | Lambsquarters plant response rating (lambsquarters; [7]): 95 | Soybean plant response rating (soybean; [5]): 0 | Soybean plant response rating (soybean; [6]): 10 | Plant response rating, Soybean (soybean; Preemergence): 0 | Soybean plant response rating (soybean; [7]): 50 | Ragweed plant response rating (common ragweed; [5]): 0 | Ragweed plant response rating (common ragweed; [6]): 80 | Plant response rating, Ragweed (common ragweed; Preemergence): 0 | Ragweed plant response rating (common ragweed; [7]): 85 | Plant response rating, Crabgrass, Large (crabgrass; Postemergence, 125 g ai/ha): 70 | Crabgrass, Large plant response rating (crabgrass; [8]): 90 | Crabgrass, Large plant response rating (crabgrass; [9]): 70 | Crabgrass, Large plant response rating (crabgrass; [10]): 100 | Velvetleaf plant response rating (velvetleaf [4]; [5]): 55 | Velvetleaf plant response rating (velvetleaf [4]; [6]): 80 | Plant response rating, Velvetleaf (velvetleaf [4]; Preemergence): 0 | Velvetleaf plant response rating (velvetleaf [4]; [7]): 100 | Foxtail, Green plant response rating (green foxtail; [5]): 98 | Foxtail, Green plant response rating (green foxtail; [6]): 100 | Plant response rating, Foxtail, Green (green foxtail; Preemergence): 60 | Foxtail, Green plant response rating (green foxtail; [7]): 100 | Pigweed plant response rating (pigweed; [5]): 100 | Pigweed plant response rating (pigweed; [6]): 100 | Plant response rating, Pigweed (pigweed; Preemergence): 60 | Pigweed plant response rating (pigweed; [7]): 100 | Plant response rating, Foxtail, Giant (giant foxtail; Postemergence, 125 g ai/ha): 80 | Foxtail, Giant plant response rating (giant foxtail; [8]): 90 | Foxtail, Giant plant response rating (giant foxtail; [9]): 80 | Foxtail, Giant plant response rating (giant foxtail; [10]): 100

CC(C)c1cc[n+]([O-])c([S+]([O-])Cc2c(C(F)(F)F)nn(C)c2OC(F)F)c1 (centres unmarked) [Compound 109]
Bromegrass, Downy plant response rating (downy brome; [5]): 40 | Bromegrass, Downy plant response rating (downy brome; [6]): 95 | Plant response rating, Bromegrass, Downy (downy brome; Preemergence): 40 | Bromegrass, Downy plant response rating (downy brome; [7]): 100 | Plant response rating, Velvetleaf (velvetleaf [1]; Postemergence, 125 g ai/ha): 60 | Velvetleaf plant response rating (velvetleaf [1]; [8]): 80 | Velvetleaf plant response rating (velvetleaf [1]; [9]): 50 | Velvetleaf plant response rating (velvetleaf [1]; [10]): 100 | Plant response rating, Ducksalad (duck salad; [13]): 0 | Plant response rating, Ducksalad (duck salad; [11]): 40 | Plant response rating, Ducksalad (duck salad; [14]): 45 | Plant response rating, Ducksalad (duck salad; [12]): 65 | Galium plant response rating (catchweed bedstraw; [5]): 90 | Galium plant response rating (catchweed bedstraw; [6]): 100 | Plant response rating, Galium (catchweed bedstraw; Preemergence, 31 g ai/ha, scale 0 to 100 (0 no effect, 100 complete control)): 60 | Galium plant response rating (catchweed bedstraw; [7]): 100 | Cupgrass, Woolly plant response rating (woolly cupgrass; [5]): 95 | Cupgrass, Woolly plant response rating (woolly cupgrass; [6]): 98 | Plant response rating, Cupgrass, Woolly (woolly cupgrass; Preemergence): 70 | Cupgrass, Woolly plant response rating (woolly cupgrass; [7]): 98 | Plant response rating, Barnyardgrass (barnyardgrass [2]; Postemergence, 125 g ai/ha): 80 | Barnyardgrass plant response rating (barnyardgrass [2]; [8]): 90 | Barnyardgrass plant response rating (barnyardgrass [2]; [9]): 70 | Barnyardgrass plant response rating (barnyardgrass [2]; [10]): 100 | Plant response rating, Barnyardgrass (barnyardgrass [3]; [13]): 0 | Plant response rating, Barnyardgrass (barnyardgrass [3]; [11]): 20 | Plant response rating, Barnyardgrass (barnyardgrass [3]; [14]): 20 | Plant response rating, Barnyardgrass (barnyardgrass [3]; [12]): 20 | Surinam Grass plant response rating (Surinam grass; [5]): 95 | Surinam Grass plant response rating (Surinam grass; [6]): 100 | Plant response rating, Surinam Grass (Surinam grass; Preemergence): 50 | Surinam Grass plant response rating (Surinam grass; [7]): 100 | Blackgrass plant response rating (blackgrass; [5]): 70 | Blackgrass plant response rating (blackgrass; [6]): 80 | Plant response rating, Blackgrass (blackgrass; Preemergence): 40 | Blackgrass plant response rating (blackgrass; [7]): 80 | Lambsquarters plant response rating (lambsquarters; [5]): 100 | Lambsquarters plant response rating (lambsquarters; [6]): 100 | Plant response rating, Lambsquarters (lambsquarters; Preemergence): 100 | Lambsquarters plant response rating (lambsquarters; [7]): 100 | Soybean plant response rating (soybean; [5]): 50 | Soybean plant response rating (soybean; [6]): 85 | Plant response rating, Soybean (soybean; Preemergence): 45 | Soybean plant response rating (soybean; [7]): 95 | Ragweed plant response rating (common ragweed; [5]): 50 | Ragweed plant response rating (common ragweed; [6]): 55 | Plant response rating, Ragweed (common ragweed; Preemergence): 50 | Ragweed plant response rating (common ragweed; [7]): 80 | Plant response rating, Crabgrass, Large (crabgrass; Postemergence, 125 g ai/ha): 60 | Crabgrass, Large plant response rating (crabgrass; [8]): 90 | Crabgrass, Large plant response rating (crabgrass; [9]): 90 | Crabgrass, Large plant response rating (crabgrass; [10]): 100 | Velvetleaf plant response rating (velvetleaf [4]; [5]): 80 | Velvetleaf plant response rating (velvetleaf [4]; [6]): 98 | Plant response rating, Velvetleaf (velvetleaf [4]; Preemergence): 10 | Velvetleaf plant response rating (velvetleaf [4]; [7]): 100 | Foxtail, Green plant response rating (green foxtail; [5]): 95 | Foxtail, Green plant response rating (green foxtail; [6]): 100 | Plant response rating, Foxtail, Green (green foxtail; Preemergence): 50 | Foxtail, Green plant response rating (green foxtail; [7]): 100 | Pigweed plant response rating (pigweed; [5]): 100 | Pigweed plant response rating (pigweed; [6]): 100 | Plant response rating, Pigweed (pigweed; Preemergence): 100 | Pigweed plant response rating (pigweed; [7]): 100 | Plant response rating, Foxtail, Giant (giant foxtail; Postemergence, 125 g ai/ha): 80 | Foxtail, Giant plant response rating (giant foxtail; [8]): 90 | Foxtail, Giant plant response rating (giant foxtail; [9]): 90 | Foxtail, Giant plant response rating (giant foxtail; [10]): 100
